Assay results as given in patent publication US6737383B1, “Herbicidal oxadiazolidines” (priority 1999, dated 2004).

Assays:
[1] = test system: soybean; assay: Test B pre/postemergence soybean; format: in vivo, Glycine max
Procedure, shortened: (§1)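 Test chemicals in a non-phytotoxic solvent mixture with surfactant were sprayed preemergence onto planted seeds and postemergence onto plants 2 to 18 cm tall (1- to 4-leaf stage). After twelve to sixteen days in a greenhouse, injury was visually rated against untreated controls from 0 (no effect) to 10 (complete control).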

[2] = test system: duck salad; assay: Test B flood test duck salad; format: in vivo, Heteranthera limosa
Procedure, shortened: (§2)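 Each value is a visual injury score relative to controls, with 10 meaning complete control and 0 no effect. Evaluation took place twelve to sixteen days after the 2-leaf-stage plants were treated and kept in the greenhouse.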

[3] = test system: cocklebur; assay: Test B pre/postemergence cocklebur; format: in vivo, Xanthium strumarium
Procedure, shortened: as §1

[4] = test system: rape; assay: Test B pre/postemergence rape; format: in vivo, Brassica napus
Procedure, shortened: as §1

[5] = test system: sugar beet; assay: Test B pre/postemergence sugar beet; format: in vivo, Beta vulgaris
Procedure, shortened: as §1

[6] = test system: wild oat; assay: Test B pre/postemergence wild oat; format: in vivo, Avena fatua
Procedure, shortened: as §1

[7] = test system: crabgrass; assay: Test B pre/postemergence crabgrass; format: in vivo, Digitaria sanguinalis
Procedure, shortened: as §1

[8] = test system: corn; assay: Test B pre/postemergence corn; format: in vivo, Zea mays
Procedure, shortened: as §1

[9] = test system: purple nutsedge; assay: Test B pre/postemergence purple nutsedge; format: in vivo, Cyperus rotundus
Procedure, shortened: as §1

[10] = test system: wheat; assay: Test B pre/postemergence wheat; format: in vivo, Triticum aestivum
Procedure, shortened: as §1

[11] = test system: giant foxtail; assay: Test B pre/postemergence giant foxtail; format: in vivo, Setaria faberii
Procedure, shortened: as §1

[12] = test system: rice; assay: Test B flood test rice; format: in vivo, Oryza sativa
Procedure, shortened: as §2

[13] = test system: pigweed; assay: Test B pre/postemergence pigweed; format: in vivo, Amaranthus retroflexus
Procedure, shortened: as §1

[14] = test system: smallflower flatsedge; assay: Test B flood test smallflower flatsedge; format: in vivo, Cyperus difformis
Procedure, shortened: as §2

[15] = test system: morningglory; assay: Test B pre/postemergence morningglory; format: in vivo, Ipomoea hederacea
Procedure, shortened: as §1

[16] = test system: velvetleaf; assay: Test B pre/postemergence velvetleaf; format: in vivo, Abutilon theophrasti
Procedure, shortened: as §1

[17] = Preemergence, Rate 62 g/ha, scale of 0 to 10 where 0 is no effect and 10 is complete control
[18] = Preemergence, Rate 125 g/ha, 0 is no effect, 10 is complete control
[19] = Preemergence, Rate 250 g/ha, scale 0 to 10, 0 is no effect, 10 is complete control
[20] = Preemergence, Rate 500 g/ha, scale of 0 to 10 where 0 is no effect and 10 is complete control
[21] = Rate 62 g/ha, Postemergence, scale of 0 to 10 where 0 is no effect and 10 is complete control
[22] = Rate 125 g/ha, Postemergence, scale 0 to 10
[23] = Rate 500 g/ha, Postemergence, scale 0 to 10
[24] = Rate 62 g/ha, headed Pre-emergence (flood test species), scale 0 to 10 (0 no effect, 10 complete control)
[25] = Rate 125 g/ha, Pre-emergence, flood test species, scale 0 to 10 where 0 is no effect and 10 is complete control
[26] = Rate 250 g/ha, Pre-emergence, flood-test species, scale 0 to 10, 0 is no effect, 10 is complete control
[27] = Rate 500 g/ha, headed Pre-emergence (flood test species), scale 0 to 10 (0 no effect, 10 complete control)

Q: With `Cc1nc(C)c(-n2c(=O)on(C(=O)N(c3ccccc3)C(C)C)c2=O)s1` [Compound 197] as the compound, how does the “Soybean plant response rating” value [1, 17] read?
A: 0

Q: What about the “Soybean plant response rating (0 to 10 scale)” value [1, 18] of the same compound?
A: 0

Q: And the “Soybean plant response rating” value [1, 19]?
A: 0

Q: What about the “Plant response rating, Soybean” value [1, 20] of the same compound?
A: 0

Q: What about the “Soybean plant response rating” value [1, 21] of the same compound?
A: 0

Q: What about the “Soybean plant response rating” value [1, 22] of the same compound?
A: 0

Q: What about the “Plant response rating (0 to 10; 0 is no effect, 10 is complete control), Soybean” value ([1]; Rate 250 g/ha, Postemergence) of the same compound?
A: 0

Q: What about the “Soybean plant response rating” value [1, 23] of the same compound?
A: 0

Q: And the “Ducksalad plant response rating” value [2, 24]?
A: 0

Q: And the “Ducksalad plant response rating” value [2, 25]?
A: 0

Q: And the “Ducksalad plant response rating” value [2, 26]?
A: 0

Q: What about the “Plant response rating, Ducksalad” value [2, 27] of the same compound?
A: 0

Q: What about the “Cocklebur plant response rating” value [3, 17] of the same compound?
A: 0

Q: And the “Cocklebur plant response rating (0 to 10 scale)” value [3, 18]?
A: 0

Q: And the “Cocklebur plant response rating” value [3, 19]?
A: 0

Q: What about the “Plant response rating, Cocklebur” value [3, 20] of the same compound?
A: 0

Q: And the “Cocklebur plant response rating” value [3, 21]?
A: 0

Q: And the “Cocklebur plant response rating” value [3, 22]?
A: 0

Q: And the “Plant response rating (0 to 10; 0 is no effect, 10 is complete control), Cocklebur” value ([3]; Rate 250 g/ha, Postemergence)?
A: 0

Q: What about the “Cocklebur plant response rating” value [3, 23] of the same compound?
A: 0

Q: What about the “Rape plant response rating” value [4, 17] of the same compound?
A: 0

Q: And the “Rape plant response rating (0 to 10 scale)” value [4, 18]?
A: 0

Q: What about the “Rape plant response rating” value [4, 19] of the same compound?
A: 0

Q: What about the “Plant response rating, Rape” value [4, 20] of the same compound?
A: 0

Q: What about the “Rape plant response rating” value [4, 21] of the same compound?
A: 0

Q: What about the “Rape plant response rating” value [4, 22] of the same compound?
A: 0

Q: What about the “Plant response rating (0 to 10; 0 is no effect, 10 is complete control), Rape” value ([4]; Rate 250 g/ha, Postemergence) of the same compound?
A: 0

Q: What about the “Rape plant response rating” value [4, 23] of the same compound?
A: 0

Q: What about the “Sugarbeets plant response rating” value [5, 17] of the same compound?
A: 0

Q: What about the “Sugarbeets plant response rating (0 to 10 scale)” value [5, 18] of the same compound?
A: 0

Q: And the “Sugarbeets plant response rating” value [5, 19]?
A: 0

Q: What about the “Plant response rating, Sugarbeets” value [5, 20] of the same compound?
A: 0

Q: And the “Sugarbeets plant response rating” value [5, 21]?
A: 0

Q: What about the “Sugarbeets plant response rating” value [5, 22] of the same compound?
A: 0

Q: And the “Plant response rating (0 to 10; 0 is no effect, 10 is complete control), Sugarbeets” value ([5]; Rate 250 g/ha, Postemergence)?
A: 0

Q: What about the “Sugarbeets plant response rating” value [5, 23] of the same compound?
A: 0

Q: What about the “Wild oats plant response rating” value [6, 17] of the same compound?
A: 0

Q: What about the “Wild oats plant response rating” value [6, 19] of the same compound?
A: 0

Q: What about the “Plant response rating, Wild oats” value [6, 20] of the same compound?
A: 0

Q: What about the “Wild oats plant response rating” value [6, 21] of the same compound?
A: 0

Q: And the “Wild oats plant response rating” value [6, 22]?
A: 0

Q: And the “Plant response rating (0 to 10; 0 is no effect, 10 is complete control), Wild oats” value ([6]; Rate 250 g/ha, Postemergence)?
A: 0

Q: What about the “Crabgrass plant response rating” value [7, 17] of the same compound?
A: 0

Q: What about the “Crabgrass plant response rating (0 to 10 scale)” value [7, 18] of the same compound?
A: 0

Q: And the “Crabgrass plant response rating” value [7, 19]?
A: 0

Q: And the “Plant response rating, Crabgrass” value [7, 20]?
A: 3

Q: And the “Crabgrass plant response rating” value [7, 21]?
A: 0

Q: And the “Crabgrass plant response rating” value [7, 22]?
A: 0

Q: What about the “Plant response rating (0 to 10; 0 is no effect, 10 is complete control), Crabgrass” value ([7]; Rate 250 g/ha, Postemergence) of the same compound?
A: 0

Q: What about the “Crabgrass plant response rating” value [7, 23] of the same compound?
A: 2

Q: And the “Corn plant response rating” value [8, 17]?
A: 0

Q: And the “Corn plant response rating (0 to 10 scale)” value [8, 18]?
A: 0

Q: And the “Corn plant response rating” value [8, 19]?
A: 0

Q: And the “Plant response rating, Corn” value [8, 20]?
A: 0

Q: What about the “Corn plant response rating” value [8, 21] of the same compound?
A: 0

Q: What about the “Corn plant response rating” value [8, 22] of the same compound?
A: 0

Q: What about the “Plant response rating (0 to 10; 0 is no effect, 10 is complete control), Corn” value ([8]; Rate 250 g/ha, Postemergence) of the same compound?
A: 0

Q: What about the “Corn plant response rating” value [8, 23] of the same compound?
A: 0

Q: What about the “Nutsedge plant response rating” value [9, 17] of the same compound?
A: 0

Q: And the “Nutsedge plant response rating (0 to 10 scale)” value [9, 18]?
A: 0

Q: And the “Nutsedge plant response rating” value [9, 19]?
A: 0

Q: What about the “Plant response rating, Nutsedge” value [9, 20] of the same compound?
A: 0

Q: And the “Nutsedge plant response rating” value [9, 21]?
A: 0

Q: What about the “Nutsedge plant response rating” value [9, 22] of the same compound?
A: 0

Q: And the “Plant response rating (0 to 10; 0 is no effect, 10 is complete control), Nutsedge” value ([9]; Rate 250 g/ha, Postemergence)?
A: 0

Q: And the “Nutsedge plant response rating” value [9, 23]?
A: 0

Q: And the “Wheat plant response rating” value [10, 17]?
A: 0

Q: What about the “Wheat plant response rating” value [10, 19] of the same compound?
A: 0

Q: And the “Plant response rating, Wheat” value [10, 20]?
A: 0

Q: And the “Wheat plant response rating” value [10, 21]?
A: 0

Q: And the “Wheat plant response rating” value [10, 22]?
A: 0

Q: What about the “Plant response rating (0 to 10; 0 is no effect, 10 is complete control), Wheat” value ([10]; Rate 250 g/ha, Postemergence) of the same compound?
A: 0

Q: What about the “Giant foxtail plant response rating” value [11, 17] of the same compound?
A: 0

Q: What about the “Giant foxtail plant response rating (0 to 10 scale)” value [11, 18] of the same compound?
A: 0

Q: What about the “Giant foxtail plant response rating” value [11, 19] of the same compound?
A: 0

Q: And the “Plant response rating, Giant foxtail” value [11, 20]?
A: 3

Q: What about the “Giant foxtail plant response rating” value [11, 21] of the same compound?
A: 0

Q: What about the “Giant foxtail plant response rating” value [11, 22] of the same compound?
A: 0

Q: And the “Plant response rating (0 to 10; 0 is no effect, 10 is complete control), Giant foxtail” value ([11]; Rate 250 g/ha, Postemergence)?
A: 0

Q: And the “Giant foxtail plant response rating” value [11, 23]?
A: 3

Q: And the “Rice plant response rating” value [12, 24]?
A: 0

Q: And the “Rice plant response rating” value [12, 25]?
A: 0

Q: And the “Rice plant response rating” value [12, 26]?
A: 0

Q: What about the “Plant response rating, Rice” value [12, 27] of the same compound?
A: 0

Q: What about the “Redroot pigweed plant response rating” value [13, 17] of the same compound?
A: 0

Q: And the “Redroot pigweed plant response rating (0 to 10 scale)” value [13, 18]?
A: 0

Q: What about the “Redroot pigweed plant response rating” value [13, 19] of the same compound?
A: 0

Q: What about the “Plant response rating, Redroot pigweed” value [13, 20] of the same compound?
A: 0

Q: What about the “Redroot pigweed plant response rating” value [13, 21] of the same compound?
A: 0

Q: And the “Redroot pigweed plant response rating” value [13, 22]?
A: 0

Q: What about the “Plant response rating (0 to 10; 0 is no effect, 10 is complete control), Redroot pigweed” value ([13]; Rate 250 g/ha, Postemergence) of the same compound?
A: 0

Q: What about the “Redroot pigweed plant response rating” value [13, 23] of the same compound?
A: 0

Q: What about the “S. Flatsedge plant response rating” value [14, 24] of the same compound?
A: 0

Q: And the “S. Flatsedge plant response rating” value [14, 25]?
A: 0

Q: And the “S. Flatsedge plant response rating” value [14, 26]?
A: 0

Q: And the “S. Flatsedge plant response rating” value ([14]; Rate 500 g/ha, Pre-emergence, flood test species, scale 0 to 10 (0 no effect, 10 complete control))?
A: 0

Q: What about the “Morningglory plant response rating” value [15, 17] of the same compound?
A: 0

Q: And the “Morningglory plant response rating (0 to 10 scale)” value [15, 18]?
A: 0

Q: And the “Morningglory plant response rating” value [15, 19]?
A: 0

Q: And the “Plant response rating, Morningglory” value [15, 20]?
A: 0

Q: And the “Morningglory plant response rating” value [15, 21]?
A: 3

Q: And the “Morningglory plant response rating” value [15, 22]?
A: 5

Q: And the “Plant response rating (0 to 10; 0 is no effect, 10 is complete control), Morningglory” value ([15]; Rate 250 g/ha, Postemergence)?
A: 5

Q: And the “Morningglory plant response rating” value [15, 23]?
A: 0

Q: And the “Velvetleaf plant response rating” value [16, 17]?
A: 0

Q: What about the “Velvetleaf plant response rating” value [16, 19] of the same compound?
A: 0

Q: What about the “Plant response rating, Velvetleaf” value [16, 20] of the same compound?
A: 0

Q: And the “Velvetleaf plant response rating” value [16, 21]?
A: 0

Q: And the “Velvetleaf plant response rating” value [16, 22]?
A: 0

Q: What about the “Plant response rating (0 to 10; 0 is no effect, 10 is complete control), Velvetleaf” value ([16]; Rate 250 g/ha, Postemergence) of the same compound?
A: 0
